Measurements: patent publication US11607417B2, “Uses of celastrol in preventing and/or treating cholestatic liver disease and liver fibrosis” (KUNMING INSTITUTE OF BOTANY, THE CHINESE ACADEMY OF SCIENCES, priority 2017, dated 2023)

What was measured:
[1] = system: TAA-induced cholestatic liver injury under SIRT1 inhibition; test: Effect of SIRT1 inhibition (EX527) on celastrol activity in TAA model (Example 4); format: in vivo, C57BL/6 mice; details: TAA model
Procedure: A total of 24 male C57BL/6 mice were divided into four groups: blank group (n=6);
model group (n=6); treatment group (n=6); EX527 group (n=6).
Celastrol was dissolved in a solvent to obtain a solution of celastrol at a concentration of 2 mg/mL, wherein the solvent consisted of 1% DMSO, 2% Tween, and 97% water (v:v:v). For intragastrical administration, the dosage of celastrol was 10 mg/kg·d. TAA was dissolved in 0.9% NaCl solution to prepare a NaCl solution of TAA at a concentration of 60 mg/mL, and the dosage of TAA for intraperitoneal administration was 300 mg/kg. EX527 was dissolved in corn oil to prepare a corn oil solution of EX527 at a concentration of 2 mg/mL, and the dosage of EX527 for intraperitoneal administration was 10 mg/kg. d.
(§1) The EX527 group was simultaneously administered with the celastrol solution and the EX527 corn oil solution for 4 consecutive days. The treatment group was administrated with the celastrol solution and an equal dosage of corn oil for 4 consecutive days. At the same time, the blank group and the model group were administrated with equal dosages of solvent (1% DMSO, 2% Tween 80 and 97% water (v:v:v)) and corn oil, and the solvent was administrated for 4 consecutive days.
On the 4th day, the establishment of TAA model was performed. 1 Hour after administration, the mice in the model group, the treatment group and the EX527 group were intraperitoneally injected with TAA at a dosage of 300 mg/kg to induce cholestatic liver injury. 24 Hours after administration with TAA, the mice were sacrificed by CO2 anesthesia, and plasma samples and liver samples were collected. The eyeballs of the mice were taken for blood collection. The plasma samples were placed on ice for 1-2 hours, centrifuged at 4000 g for 5 minutes at 4° C., and the supernatants of plasma samples were taken to determine the plasma biochemical indicators, the levels of ALT, AST, and ALP.
At the same time, plasma samples were prepared: 10 μL of plasma sample was mixed with 190 μL of 67% acetonitrile (containing 5 μM internal standard chlorpropamide), centrifuged at 18000 g for 20 minutes at 4° C., and the supernatant was taken for sample injection. The liquid chromatography conditions were as follows: the volume of injection was 5 μL; the temperature of column was 45° C.; the flow rate of mobile phase was 0.3 mL/min; the gradient elution was that acetonitrile concentration changed from 2% to 98% during 16 minutes of operation, wherein the mobile phase (water/acetonitrile solution) contained 0.01% formic acid. The elution procedure was as follows: during 0-12th minute, the acetonitrile concentration changed from 2% to 98% at a constant rate; during 12-14th minute, the acetonitrile concentration was maintained at 98%; during 14-14.1th minute, the acetonitrile concentration changed from 98% to 2%; during 14.1-16th minute, the acetonitrile concentration was maintained at 2%. Mass spectrometry conditions were as follows: the temperature of dry gas was 350° C., the pressure of nebulizer was 35 psi, and the voltage of capillary was 3.5 kV.
Part of the collected mouse liver tissue was fixed overnight in formalin, and tissue sections were stained with hematoxylin and eosin (H&E).

[2] = system: ANIT-induced cholestatic liver injury under SIRT1 inhibition; test: Effect of SIRT1 inhibition (EX527) on celastrol activity in ANIT model (Example 3); format: in vivo, C57BL/6 mice
Procedure: A total of 24 male C57BL/6 mice were divided into four groups: blank group (n=6); model group (n=6); treatment group (n=6); and EX527 group (n=6).
Celastrol was dissolved in a solvent to obtain a celastrol solution at a concentration of 2 mg/mL, wherein the solvent consisted of 1% DMSO, 2% Tween 80, and 97% water (v:v:v). For intragastrical administration, the dosage of celastrol was 10 mg/kg·d. ANIT was dissolved in corn oil to obtain a corn oil solution of ANIT at a concentration of 15 mg/mL, and the dosage of ANIT for intragastrical administration was 75 mg/kg. EX527 was dissolved in corn oil to obtain a corn oil solution of EX527 at a concentration of 2 mg/mL, and the dosage of EX527 for intraperitoneal injection was 10 mg/kg·d.
as §1, with “administrated” for “administered”, “5” for “4”
On the 3rd day of administration, ANIT model was established. 4 Hours after administration, the mice in the model group, the treatment group and the EX527 group were respectively intraperitoneally injected with the ANIT corn oil solution at a dosage of 75 mg/kg for single administration to induce cholestatic liver injury, and the blank group was fed with an equal dosage of corn oil. After the model was established on the 3rd day of administration, the treatment group was continuously administrated with celastrol, the EX527 group was continuously administrated with celastrol and EX527, and the blank group and the model group were continuously administrated with the same dosage of solvent. 48 Hours after administration with ANIT, the mice were sacrificed by CO2 anesthesia, and mouse liver samples and plasma samples were taken. The eyeballs of the mice were taken for blood collection. The plasma samples were placed on ice for 1-2 hours, centrifuged at 4000 g for 5 minutes at 4° C., and the supernatants of the plasma samples were taken to determine plasma biochemical indicators, the levels of ALT, AST and ALP.
At the same time, plasma samples were prepared: 10 μL of plasma sample was taken, mixed well with 190 μL of 67% acetonitrile (containing 5 μM internal standard chlorpropamide), centrifuged at 18000 g for 20 minutes at 4° C., and the supernatant was taken for sample injection. The liquid chromatography conditions were as follows: the injection volume was 5 μL; the temperature of column was 45° C.; the flow rate of mobile phase was 0.3 mL/min; the gradient elution was that acetonitrile concentration changed from 2% to 98% during 16 minutes of operation, wherein the mobile phase (water/acetonitrile solution) contained 0.01% formic acid. The elution procedure was as follows: during 0-12th minute, the acetonitrile concentration changed from 2% to 98% at a constant rate; during 12-14th minute, the acetonitrile concentration was maintained at 98%; during 14-14.1th minute, the acetonitrile concentration changed from 98% to 2%; during 14.1-16th minute, the acetonitrile concentration was maintained at 2%. Mass spectrometry conditions were as follows: the temperature of dry gas was 350° C., the pressure of nebulizer was 35 psi, and the voltage of capillary was 3.5 kV.
Part of the collected mouse liver tissue was fixed overnight in formalin and tissue sections were stained with hematoxylin and eosin (H&E).

[3] = EX527 group: celastrol 10 mg/kg·d + EX527 10 mg/kg·d i.p., P<0.001, FIG. 4E
[4] = EX527 group: celastrol 10 mg/kg·d + EX527 10 mg/kg·d i.p., P<0.05, FIG. 3E

NC(=O)C1CCCc2c1[nH]c1ccc(Cl)cc21 (centres unmarked) [EX527, reference compound]
Levels of bile acids in plasma vs treatment group ([1]; DCA, TβMCA/TαMCA, TCA and TDCA, EX527 group: celastrol + EX527 10 mg/kg·d i.p., P<0.05, FIG. 4F): significantly higher
H&E staining of mouse liver tissue ([1]; EX527 group: celastrol 10 mg/kg·d + EX527 10 mg/kg·d i.p., FIG. 4D): a severe necrosis of liver cells also occurred
ALT level in plasma vs treatment group [1, 3]: significantly higher
AST level in plasma vs treatment group [1, 3]: significantly higher
Levels of bile acids in plasma vs treatment group ([2]; CA, TβMCA/TαMCA and THDCA/TUDCA, EX527 group: celastrol + EX527 10 mg/kg·d i.p., P<0.05, FIG. 3F): significantly higher
H&E staining of mouse liver tissue ([2]; EX527 group: celastrol 10 mg/kg·d + EX527 10 mg/kg·d i.p., FIG. 3D): a severe inflammatory infiltration and a periportal hemorrhage also occurred
ALT level in plasma vs treatment group [2, 4]: significantly higher
AST level in plasma vs treatment group [2, 4]: significantly higher
